This is an account of results in patent publication US6989263B1, “Method for identifying and using compounds that inactivate HIV-1 and other retroviruses by attacking highly conserved zinc fingers in the viral nucleocapsid protein” (The United States of America as represented by the …, priority 1994, dated 2006).

“Also recorded” adds a separate entry of the source. Read-outs that look alike come from different tables or passages of the source. Some results are limits rather than exact numbers.

The target in data set [1] is T1, p7NC (Human immunodeficiency virus type 1 group M subtype B, UniProt P05888).
T1 construct: The NC protein of HIV-1 (MN) p7NC was expressed in E. coli; made in house; host or cells: E. coli (vector pMAL-c)
The data set can be described thus: HPLC analysis of reaction products of purified p7NC with reagent. The data set is classed as biochemical, HIV-1. The arrangement: key to Protein (HPLC): reaction products / Protein (HPLC): reaction rate: formation of non-native, intra-protein disulfide links (designated “Disulfides”); some of the reagents form adducts with the cysteine residues as well (designated “Adducts”); slow: “Slow” reactions are those in which greater than 10% of the p7NC protein remained in its native form after the 10 minute incubation with reagent; very slow: “Very slow” reactions are those in which greater than 50% of the p7NC protein remained in its native form after the 10 minute incubation with reagent; fast: “Fast” reactions result in complete transformation of the p7NC protein to non-native conformations during the 10 minute incubation period. Conditions: for Protein (HPLC): reaction products / Protein (HPLC): reaction rate: 63 μM p7NC, 6 reagent : 1 protein, 10 minutes. The source says: Highly purified retroviral NC proteins can be produced by expression from vectors generated through recombinant DNA technology. These proteins when reconstituted with zinc (see, Summers, et al., Protein Science 1:563–567 (1992) for methods), provide the source of the NC proteins containing the zinc fingers that are the targets for attack by the compounds of this invention. When the zinc fingers in NC proteins react with identified compounds, the reaction produces a covalent change in the NC protein, and the modified protein can be separated from the unreacted protein by, for example, reversed phase HPLC.
Samples of p7NC and apo-p7 were reacted with varying amounts of cupric chloride and resulting products separated by HPLC. The reactions were carried out using 44.3 μM protein (p7NC or apo-p7) in 0.1 M Tris-HCl, pH 7.4, for 6 minutes at room temperature with varying concentrations of CuCl2 to achieve the indicated ratios of reactants, in a final volume of 0.7 ml. Chromatography was carried out on the resulting products at pH 2 (0.05% trifluoroacetic acid) on μBondapak™ C-18 (3.9×300 mm) at 1.0 ml/minute using an acetonitrile gradient (0–17%, 20 ml; 17–20%, 60 ml; 20–60%, 10 ml). Elution positions of unreacted protein (p7NC or apo-p7) are indicated as apo-p7.
A two-fold excess of NOBA was reacted with p7NC, and the products were separated by HPLC (FIG. 10) as described above for Cu^+2 and p7NC. Elution positions for the reactants (NOBA and unreacted p7NC) and products, reacted p7NC, NOBA, HABA and AzoxyBA are indicated and an elution profile is included in FIG. 10. NOBA and AzoxyBA were supplied by Octamer, Inc. (Mill Valley, Calif.) and used as HPLC standards.
The disulfide reagent of choice (each available from the Aldrich Chemical Company (Milwaukee, Wis.)) was incubated for 10 minutes with purified p7NC protein (63 μM) at a ratio of 6 molecules of reagent to 1 molecule of NC protein (there are 6 cysteine thiols per NC protein). The formation of non-native protein conformations was monitored by HPLC as described above. […] Generally, the inactivation proceeds by formation of non-native, intra-protein disulfide links (designated “Disulfides”), but some of the reagents form adducts with the cysteine residues as well (designated “Adducts”). “Slow” reactions are those in which greater than 10% of the p7NC protein remained in its native form after the 10 minute incubation with reagent. “Very slow” reactions are those in which greater than 50% of the p7NC protein remained in its native form after the 10 minute incubation with reagent. “Fast” reactions result in complete transformation of the p7NC protein to non-native conformations during the 10 minute incubation period.

Data set [2] concerns HIV-1. Briefly: microbe, parasite or virus in culture. To be noted: Human immunodeficiency virus 1, read-out: TCID (Virus): concentration of reagent required to inactivate half of a standardized number of HIV-1 virus particles.
Method: (§1) Concomitantly, the drug treated virions are tested for activity. The virions are suspended in media (rather than solubilized) and added to target cells. The cultures are then examined to determine whether the virions are still active.
Data set [3] concerns the target T2, p11 Nucleocapsid Protein (p11NC) (Equine infectious anemia virus, UniProt P69732).
T2 construct: a variety of disulfide reagents cross-link the p11NC protein in intact viral particles; endogenous in cells; host or cells: intact EIAV particles
The data set can be described thus: Cross-linking of p11NC in intact EIAV particles (gel-mobility shift). The data set is classed as biochemical. To be noted: intact EIAV (50 μM), 4× the HIV assay concentrations. The source says:
Essentially the same strategy was employed to analyze the ability of the various disulfide reagents to cross-link the p11 Nucleocapsid Protein (p11NC) in intact Equine Infectious Anemia Virus (EIAV) particles. The advantages of working with EIAV include the fact that it is not a human pathogen, and that the p11NC protein can be visualized by simple coomassie-blue staining after performing the gel-mobility shift assay (rather than by western blotting as for HIV) described above. The reaction conditions were essentially the same for the EIAV assays as for the HIV assays described above, except that the concentration of virus and disulfide reagent was 4× the concentrations used in the HIV assay above. The second number in each cell in the X-link column in Table 2 represents the time required to cross-link one-half of the p11NC protein in the intact viral particles. […] The bottom number in each cell of the X-link column, unless otherwise indicated, represents the concentration of EIAV used in the assay. Blank cells throughout Table 2 indicate that the compound has yet to be tested for the specified property.

Data set [4] deals with HIV-1. Conditions: read-out: TCID (Virus): concentration of reagent required to inactivate half of a standardized number of HIV-1 virus particles; tissue culture infectivity assay.
Method: as §1
For data set [5], the target named is T3, HIV NC protein in intact virus (Human immunodeficiency virus type 1 group M subtype B, UniProt P05888).
T3 construct: endogenous in cells; host or cells: intact HIV virions
The data set can be described thus: Cross-linking of NC protein in intact HIV (non-reducing gel-mobility shift, western blot). The data set is classed as biochemical, HIV-1. To be noted: for X-link T-½ (min), HIV NC protein (top number): intact HIV generally 12.5 μM, reagent generally 25 μM. The source says:
Purified concentrated retrovirus and antisera against the purified NC protein of the virus can be used to test the ability of a specific compound to penetrate the virus and react with the NC protein by forming disulfide complexes in the core of the virus. The compound is mixed with the whole retrovirus under reaction conditions appropriate for the compound. The virus is then removed from the reagent by centrifugation and disrupted in, e.g, standard SDS-PAGE sample buffer with (reduced) and without (non-reduced) 2-mercaptoethanol. The viral proteins are then separated by standard SDS-PAGE and the sample examined for the presence or absence of the monomeric NC protein in the non-reduced sample. Depending upon the virus used in the experiment and the conditions of electrophoresis, the NC protein can be visualized by protein staining methods, or by immuno-blot (e.g., western) methods. Compounds which react with the NC protein by attacking the zinc finger complexes and forming disulfide cross-linked products (i.e., which generate multimers in the mobility shift assay) inactivate the virus. Thus, compounds of interest (i.e., those which cause cross-linking) reduced the amount of monomeric NC protein detected.
In order to determine whether HIV-1MN was inactivated by NOBA, the virus was incubated with varying concentrations of NOBA (3.0, 0.3, 0.03 and 0 mM) as in Table 1. The reaction products were pelleted by centrifugation, and separated by SDS-PAGE under reducing (2% 2-mercaptoethanol, panel A), or non-reducing conditions (panel B). p7NC was visualized by immunoblot analysis using monospecific rabbit antisera to the purified NC proteins as per L. E. Henderson et al., J. Virol. 66:1856 (1992).
Disulfide reagents were further tested for their ability to disrupt NC structure in the virus, based on their ability to cause inter-NC cysteine disulfide bonds (i.e., cross-linking) in the intact virus. The formation of inter-NC cysteine disulfides creates NC multimers, which migrate through a non-reducing gel at a different rate than NC monomers, as described above. Intact HIV virus (generally 12.5 μM) was exposed to the specified reagent (generally 25 μM) for varying lengths of time and electrophoresed through a non-reducing SDS-polyacrylamide gel. HIV NC monomers and multimers were visualized by western blot analysis as described above in Example 3. The approximate time required to cross-link one-half of the NC proteins in the virus at the specified reaction conditions was then determined. […] The top number in the cells of the X-link column in Table 2 refers to the approximate time in minutes required for one-half of the HIV NC proteins to become cross-linked.

The target in data set [6] is T4, HIV-1 (MN) p7NC (Human immunodeficiency virus type 1 group M subtype B, UniProt P05888).
T4 construct: The NC protein of HIV-1 (MN) p7NC was expressed in E. coli; made in house; host or cells: E. coli (vector pMAL-c)
The data set can be described thus: Intrinsic Trp-37 fluorescence quenching of p7NC. The data set is classed as biochemical. To be noted: for change in intrinsic fluorescence of p7NC on incubation: Trp-37 fluorescence, zinc-reconstituted p7NC. The text has this:
The NC protein of HIV-1 (MN) p7NC was expressed in E. coli. The coding sequence for HIV-1(MN) p7NC was cloned and expressed using an inducible E. coli promoter in the vector pMAL-c (New England Biolabs Inc., Beverly, Mass.). The protein was expressed as a maltose-binding fusion protein and released by proteolysis with Factor Xa. HIV-1(MN) p7NC was purified by HPLC and characterized, including complete amino acid sequence analysis. p7NC was purified by high-pressure liquid chromatography (HPLC) and reconstituted with two equivalents of zinc to generate native protein as described (M. F. Summers et al., Protein Sci. 1, 563 (1992)).
Coordination of Zn^+2 enhances the intrinsic fluorescence of the single tryptophan (Trp-37) in the second zinc finger. […] The initial phase of the reaction with Cu^+2 (T1/2<20 seconds) gave 70% quenching of the original fluorescence, followed by a much slower phase (T1/2 ca. 6 minutes), resulting in a final limiting quenching of 85%.
The first quenching phase was a second order reaction, whereas the second phase was independent of protein concentration or oxidizing species.

The conditions of data set [7]: cited from earlier work.

T2 sequence (P69732 360-435): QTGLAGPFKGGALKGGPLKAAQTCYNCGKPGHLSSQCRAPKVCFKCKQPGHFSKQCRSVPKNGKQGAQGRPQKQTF

Turning to `CN(C)c1ccc(SSc2ccc(N(C)C)cc2)cc1` [4-(dimethylamino)phenyl disulfide], in data set [1], the “Protein (HPLC): reaction products” value is given as “(negative)”. In addition, the IC50 in data set [2] stood at 17.5 µM.

As to `c1ccc(SSc2ccccn2)nc1` [Aldrithiol-2], in data set [3], the “X-link T-½ (min), EIAV p11NC (second number)” value (shortened to “X-link T-½ (min), EIAV p11NC”) is recorded as approximately 15 min. The IC50 in data set [4] came out at 9 µM. For the same compound, in data set [1], the “Protein (HPLC): reaction products” value was “Disulfides; also recorded: Adducts” and the “Protein (HPLC): reaction rate” value is “(slow) (“Slow” reactions are those in which greater than 10% of the p7NC protein remained in its native form after the 10 minute incubation with reagent)”. In data set [5], the “cross-linking of the HIV-1 NC protein in intact virus (gel-mobility shift), in words” value (“cross-linking … (gel-mobility shift), in words” for short) is reported as “caused a cross-linking of the HIV-1 NC protein” and the “X-link T-½ (min), HIV NC protein (top number)” value (“X-link T-½ (min) … (top number)” below) is recorded as approximately 15 min.

Turning to `O=C(SSC(=O)c1ccccc1)c1ccccc1` [Benzoyl Disulfide], the “Protein (HPLC): reaction products” value in data set [1] is “Disulfides; also recorded: Adducts”. Also, the IC50 in data set [2] is 68 µM.

`[Cl][Cu][Cl]` [Cu^+2, cupric chloride]: the “change in intrinsic fluorescence of p7NC on incubation” value in data set [6] is “rapid biphasic decrease in fluorescence”. Also, in data set [6] (Zn^+2-coordinated p7NC), the final limiting quenching turned out to be 85% and the “quenching of the original fluorescence, initial phase” value amounted to 70%. Also, the “total protein recovered in peak B” value in data set [1] (2, 4 or 8 Cu^+2 per p7NC, 44.3 μM protein, 6 minutes, pH 7.4) is recorded as “approximately one half”.

As to `S=C(SSC(=S)N1CCCCC1)N1CCCCC1` [Dicyclopentamethylenethiuram Disulfide], in data set [3], the “X-link T-½ (min), EIAV p11NC” value is on record as approximately 10 min. Besides, the “Protein (HPLC): reaction products” value in data set [1] is recorded as “Disulfides”. The “Toxicity (LD-50, mouse)” value in data set [7] (oral) was 2.87 g/kg. In addition, the IC50 in data set [2] came out at 4 µM. Further, in data set [5], the “cross-linking … (gel-mobility shift), in words” value is recorded as “caused a cross-linking of the HIV-1 NC protein” and the “X-link T-½ (min) … (top number)” value is on record as <<15 min.

On to `Cl.Cl.N=C(N)SSC(=N)N` [Formamidine Disulfide.2HCl], for which the IC50 in data set [4] was determined as 43.5 µM. For the same compound, in data set [1], the “Protein (HPLC): reaction products” value is recorded as “Disulfides”.

Take `CCCCN(CCCC)C(=S)SSC(=S)N(CCCC)CCCC` [Tetrabutylthiuram Disulfide]: the “X-link T-½ (min), EIAV p11NC” value in data set [3] is listed as more than 60 min. In data set [1], the “Protein (HPLC): reaction products” value is recorded as “Disulfides; also recorded: Adducts” and the “Protein (HPLC): reaction rate” value is reported as “(slow) (“Slow” reactions are those in which greater than 10% of the p7NC protein remained in its native form after the 10 minute incubation with reagent)”. Besides, the “Toxicity (LD-50, mouse)” value in data set [7] (IP) is on record as 2.35 g/kg. In data set [5], the “cross-linking … (gel-mobility shift), in words” value is recorded as “caused a cross-linking of the HIV-1 NC protein” and the “X-link T-½ (min) … (top number)” value is given as approximately 30 min.

Turning to `CN(C)C(=S)SSC(=S)N(C)C` [Tetramethylthiuram Disulfide], the “X-link T-½ (min), EIAV p11NC” value in data set [3] is approximately 15 min. Further, in data set [1], the “Protein (HPLC): reaction products” value is reported as “Disulfides” and the “Protein (HPLC): reaction rate” value is given as “(slow) (“Slow” reactions are those in which greater than 10% of the p7NC protein remained in its native form after the 10 minute incubation with reagent)”. In data set [7] (IP), the “Toxicity (LD-50, mouse)” value is on record as 0.070 g/kg. For the same compound, the “Toxicity (LD-50, mouse)” value in data set [7] (oral) was 1.35 g/kg. Also, in data set [5], the “cross-linking … (gel-mobility shift), in words” value is reported as “caused a cross-linking of the HIV-1 NC protein” and the “X-link T-½ (min) … (top number)” value is on record as approximately 30 min.

With `CC(=O)[O-].CC(=O)[O-].CC(=O)[O-].[Fe+3]` [ferric acetate], in data set [6], the “change in intrinsic fluorescence of p7NC on incubation” value is recorded as “rapid biphasic decrease in fluorescence”.
